structure (smiles),measurement,setting,value
O=C1C(CCS(=O)c2ccccc2)C(=O)N(c2ccccc2)N1c1ccccc1 (stereo not drawn),solubility (mole fraction),"in 2-butanone, 283.15 K",0.0136
same,solubility (mole fraction),"in 2-butanone, 288.15 K",0.0157
same,solubility (mole fraction),"in 2-butanone, 293.15 K",0.0199
same,solubility (mole fraction),"in 2-butanone, 298.15 K",0.0241
same,solubility (mole fraction),"in 2-butanone, 303.15 K",0.0288
same,solubility (mole fraction),"in 2-butanone, 308.15 K",0.0333
same,solubility (mole fraction),"in 2-butanone, 313.15 K",0.0388
same,solubility (mole fraction),"in 2-butanone, 318.15 K",0.0495
same,solubility (mole fraction),"in 2-butanone, 323.15 K",0.0601
same,solubility (mole fraction),"in acetone, 283.15 K",0.0138
same,solubility (mole fraction),"in acetone, 288.15 K",0.0165
same,solubility (mole fraction),"in acetone, 293.15 K",0.02
same,solubility (mole fraction),"in acetone, 298.15 K",0.0244
same,solubility (mole fraction),"in acetone, 303.15 K",0.0293
same,solubility (mole fraction),"in acetone, 308.15 K",0.0371
same,solubility (mole fraction),"in acetone, 313.15 K",0.0452
same,solubility (mole fraction),"in acetone, 318.15 K",0.0524
same,solubility (mole fraction),"in acetone, 323.15 K",0.0745
same,solubility (mole fraction),"in acetonitrile, 283.15 K",0.0131
same,solubility (mole fraction),"in acetonitrile, 288.15 K",0.0155
same,solubility (mole fraction),"in acetonitrile, 293.15 K",0.0213
same,solubility (mole fraction),"in acetonitrile, 298.15 K",0.0265
same,solubility (mole fraction),"in acetonitrile, 303.15 K",0.0334
same,solubility (mole fraction),"in acetonitrile, 308.15 K",0.0474
same,solubility (mole fraction),"in acetonitrile, 313.15 K",0.0648
same,solubility (mole fraction),"in acetonitrile, 318.15 K",0.0799
same,solubility (mole fraction),"in acetonitrile, 323.15 K",0.103
same,solubility (mole fraction),"in ethanol, 283.15 K",0.00156
same,solubility (mole fraction),"in ethanol, 288.15 K",0.00211
same,solubility (mole fraction),"in ethanol, 293.15 K",0.0027
same,solubility (mole fraction),"in ethanol, 298.15 K",0.00356
same,solubility (mole fraction),"in ethanol, 303.15 K",0.0045
same,solubility (mole fraction),"in ethanol, 308.15 K",0.00542
same,solubility (mole fraction),"in ethanol, 313.15 K",0.00719
same,solubility (mole fraction),"in ethanol, 318.15 K",0.00956
same,solubility (mole fraction),"in ethanol, 323.15 K",0.0137
same,solubility (mole fraction),"in isopropanol, 283.15 K",0.000256
same,solubility (mole fraction),"in isopropanol, 288.15 K",0.000609
same,solubility (mole fraction),"in isopropanol, 293.15 K",0.00104
same,solubility (mole fraction),"in isopropanol, 298.15 K",0.00204
same,solubility (mole fraction),"in isopropanol, 303.15 K",0.00302
same,solubility (mole fraction),"in isopropanol, 308.15 K",0.0045
same,solubility (mole fraction),"in isopropanol, 313.15 K",0.00583
same,solubility (mole fraction),"in isopropanol, 318.15 K",0.0071
same,solubility (mole fraction),"in isopropanol, 323.15 K",0.00937
same,solubility (mole fraction),"in methanol, 283.15 K",0.0026
same,solubility (mole fraction),"in methanol, 288.15 K",0.00318
same,solubility (mole fraction),"in methanol, 293.15 K",0.00401
same,solubility (mole fraction),"in methanol, 298.15 K",0.00508
same,solubility (mole fraction),"in methanol, 303.15 K",0.00679
same,solubility (mole fraction),"in methanol, 308.15 K",0.00864
same,solubility (mole fraction),"in methanol, 313.15 K",0.0114
same,solubility (mole fraction),"in methanol, 318.15 K",0.0176
same,solubility (mole fraction),"in methanol, 323.15 K",0.0278
same,solubility (mole fraction),"in methyl acetate, 283.15 K",0.00978
same,solubility (mole fraction),"in methyl acetate, 288.15 K",0.0109
same,solubility (mole fraction),"in methyl acetate, 293.15 K",0.0139
same,solubility (mole fraction),"in methyl acetate, 298.15 K",0.0161
same,solubility (mole fraction),"in methyl acetate, 303.15 K",0.0195
same,solubility (mole fraction),"in methyl acetate, 308.15 K",0.0222
same,solubility (mole fraction),"in methyl acetate, 313.15 K",0.0272
same,solubility (mole fraction),"in methyl acetate, 318.15 K",0.0345
same,solubility (mole fraction),"in methyl acetate, 323.15 K",0.0485
same,solubility (mole fraction),"in n-butanol, 283.15 K",0.00169
same,solubility (mole fraction),"in n-butanol, 288.15 K",0.00245
same,solubility (mole fraction),"in n-butanol, 293.15 K",0.00314
same,solubility (mole fraction),"in n-butanol, 298.15 K",0.00438
same,solubility (mole fraction),"in n-butanol, 303.15 K",0.00592
same,solubility (mole fraction),"in n-butanol, 308.15 K",0.00724
same,solubility (mole fraction),"in n-butanol, 313.15 K",0.00971
same,solubility (mole fraction),"in n-butanol, 318.15 K",0.0129
same,solubility (mole fraction),"in n-butanol, 323.15 K",0.0166
same,solubility (mole fraction),"in n-pentanol, 283.15 K",0.00284
same,solubility (mole fraction),"in n-pentanol, 288.15 K",0.00357
same,solubility (mole fraction),"in n-pentanol, 293.15 K",0.00429
same,solubility (mole fraction),"in n-pentanol, 298.15 K",0.0053
same,solubility (mole fraction),"in n-pentanol, 303.15 K",0.00627
same,solubility (mole fraction),"in n-pentanol, 308.15 K",0.00725
same,solubility (mole fraction),"in n-pentanol, 313.15 K",0.00824
same,solubility (mole fraction),"in n-pentanol, 318.15 K",0.00921
same,solubility (mole fraction),"in n-pentanol, 323.15 K",0.0109
same,solubility (mole fraction),"in n-propanol, 283.15 K",0.00198
same,solubility (mole fraction),"in n-propanol, 288.15 K",0.00266
same,solubility (mole fraction),"in n-propanol, 293.15 K",0.00347
same,solubility (mole fraction),"in n-propanol, 298.15 K",0.00485
same,solubility (mole fraction),"in n-propanol, 303.15 K",0.00617
same,solubility (mole fraction),"in n-propanol, 308.15 K",0.00752
same,solubility (mole fraction),"in n-propanol, 313.15 K",0.0101
same,solubility (mole fraction),"in n-propanol, 318.15 K",0.0132
same,solubility (mole fraction),"in n-propanol, 323.15 K",0.0183
same,solubility (mole fraction),"in sec-butanol, 283.15 K",0.0024
same,solubility (mole fraction),"in sec-butanol, 288.15 K",0.00301
same,solubility (mole fraction),"in sec-butanol, 293.15 K",0.00388
same,solubility (mole fraction),"in sec-butanol, 298.15 K",0.0047
same,solubility (mole fraction),"in sec-butanol, 303.15 K",0.00546
same,solubility (mole fraction),"in sec-butanol, 308.15 K",0.00655
same,solubility (mole fraction),"in sec-butanol, 313.15 K",0.00876
same,solubility (mole fraction),"in sec-butanol, 318.15 K",0.0109
same,solubility (mole fraction),"in sec-butanol, 323.15 K",0.0156
same,solubility (mole fraction),"in water, 283.15 K",3.6e-05
same,solubility (mole fraction),"in water, 288.15 K",6.32e-05
same,solubility (mole fraction),"in water, 293.15 K",0.000111
same,solubility (mole fraction),"in water, 298.15 K",0.000176
same,solubility (mole fraction),"in water, 303.15 K",0.000264
same,solubility (mole fraction),"in water, 308.15 K",0.000352
same,solubility (mole fraction),"in water, 313.15 K",0.000479
same,solubility (mole fraction),"in water, 318.15 K",0.000615
same,solubility (mole fraction),"in water, 323.15 K",0.000777
